The text below walks through data of EP0981359B1, “COMPOSITIONS FOR ENHANCING IMMUNOSUPPRESSANTS' PHARMACOLOGICAL ACTIVITIES” (Zavialov, Vladimir Petrovich, priority 1997, dated 1998).

Test [1] concerns human peripheral cells. Description: mitogen (PHA)-driven proliferation, [3H]-thymidine incorporation. It is filed as cell-based. The procedure: Ninety five ml of blood were taken from each of 10 volunteer donors, and 5 ml of 3-5% EDTA were added to the blood immediately and mixed carefully to prevent coagulation. The blood was than mixed with the equal volume of medium 199 or with buffered physiological salt solution. Ficoll-Paque (Pharmacia) was poured into plastic centrifuge test-tubes with caps (Costar) (3 ml of Ficoll-Paque per each test-tube, volume of a test-tube - 15 ml, diameter - 13 mm at room temperature, and then 6-7 ml of diluted blood were carefully layered on top). The test-tubes were centrifuged at 20 °C for 40 minutes, at 400 g, with the brake of centrifuge being switched off. The mononuclear cells formed a layer on the border of the liquid division and the cells were collected with a Pasteur pipette into a centrifuge test-tube with 5 ml of RPMI 1640, containing 2% of inactivated fetal serum and penicillin (100 units/ml) with streptomycin (100 units/ml). Then the cells were washed with physiological buffer solution (PBS) three times with centrifuging at 400 g for 5 minutes at the temperature of +8 °C. When the concentration of the cells was 2.5^·10^6 cells/ml, they were placed in RPMI 1640 medium, containing 5% of fetal serum (heated for 30 minutes at 56 °C), 100 units/ml of penicillin, 100 units/ml of streptomycin, 1 ml 200 mM of L-glutamine per 100 ml of serum. All the reagents were produced by Gibco. The cells were dropped into a 96-well plate (100 µl per each plate) with mitogen - phytohemagglutinin (PHA) (final concentration - […]), the preparations under study and immunosuppressants (cyclosporin A, FK506 or rapamycin) in concentration - […]) were pipetted into the tubes beforehand. The plate was placed in a CO2-incubator at 5% CO2 with humid atmosphere for 72 hours. 12-18 hours before the completion of the incubation […] of [^3H]-thymidine was added into each well. […] The number of disintegrations per minute was counted using a Minibeta counter (LKB). The stimulation index was determined by arithmetical mean of at least three parallel measurements ±SD to the corresponding control.
In general terms: Incorporation of labelled thymidine or its analogues reports DNA synthesis.

The target of test [2] is common receptors on mouse thymocytes. The conditions noted are these: cited from earlier work.
The subject of test [3] is human T-lymphoblastoid cell line MT-4. Description: proliferation of IFN-sensitive T-lymphoblastoid cell line. The format is cell-based. The conditions noted are these: MT-4 cell line.

“α-peptoferon: octapeptide corresponding to the high-affinity binding/anti-lymphoproliferative site of hIFN-α2 (TMα1-like sequence 130-137) (LKEKKYSP; UniProt P01563 153-160, looked up, fragment)”: the “effect on mitogen (PHA)-driven proliferation (lymphoproliferative response)” value in test [1] (PHA, 72 hours, no immunosuppressant) is “inhibited by rhIFN-α2 and a-peptoferon in a dose-dependent fashion”. The “effect on PHA-driven proliferation compared with rhIFN-α2” value in test [1] (PHA, no immunosuppressant) is given as “comparable effects”. For the same substance, the “effect on PHA-driven proliferation in the presence of cyclosporin A” value in test [1] (in the presence of 20 mM CsA in cultural medium, rhIFN-α2 at 10^-16 M) was “comparable effect”. In test [2] (mouse thymocytes, read-out: Ki of recombinant (r)hIFN-α2 binding by α-peptoferon), the Ki is ~1 pM. Further, the “affinity to the specific receptors in comparison with recombinant hIFN-α2” value in test [2] (previous studies) is given as “the same or higher affinity”. For the same substance, in test [3], the “effect on the proliferation of MT-4” value is “inhibited by rhIFN-α2 and a-peptoferon in a dose-dependent fashion”; the “effect on the proliferation of MT-4 compared with rhIFN-α2” value is recorded as “comparable effects”.

The term Ki denotes a measure of affinity in units of concentration, obtained from inhibition or displacement.
